# Patent US8877769B2, “Heteroaryl-substituted urea modulators of fatty acid amide hydrolase” (Janssen Pharmaceutica NV, priority 2008, dated 2014)
# Legend:
# [1] = target: T1, Rat FAAH (Rattus norvegicus, UniProt P97612); experiment: Assay Method 2: FAAH assay, 3H-anandamide hydrolysis in cell homogenate; assay type: biochemical; details: average of results obtained, > value = solubility limit or highest concentration tested
# T1 construct: expressed in transfected cells
# T1 sequence (P97612 1-579): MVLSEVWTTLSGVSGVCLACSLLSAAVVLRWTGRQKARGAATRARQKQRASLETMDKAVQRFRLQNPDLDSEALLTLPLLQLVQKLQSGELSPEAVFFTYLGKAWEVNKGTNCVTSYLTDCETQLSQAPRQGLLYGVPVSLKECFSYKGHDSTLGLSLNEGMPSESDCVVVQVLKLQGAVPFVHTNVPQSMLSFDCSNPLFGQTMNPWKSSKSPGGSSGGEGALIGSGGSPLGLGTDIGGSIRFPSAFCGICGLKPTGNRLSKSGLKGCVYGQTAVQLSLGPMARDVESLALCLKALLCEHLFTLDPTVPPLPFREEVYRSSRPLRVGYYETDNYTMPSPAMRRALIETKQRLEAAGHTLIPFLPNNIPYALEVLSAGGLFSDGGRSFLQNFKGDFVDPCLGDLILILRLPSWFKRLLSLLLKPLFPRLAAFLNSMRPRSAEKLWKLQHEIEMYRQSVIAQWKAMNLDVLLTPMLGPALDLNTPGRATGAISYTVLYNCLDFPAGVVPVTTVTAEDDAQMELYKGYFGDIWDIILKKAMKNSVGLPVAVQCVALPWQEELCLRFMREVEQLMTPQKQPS
# Protocol: A. Transfection of Cells with Rat FAAH
# The assay mixture consisted of 50 μL of the cell homogenate, 10 μL of the test compound, and 40 μL of anandamide [1-^3H-ethanolamine] (^3H-AEA, Perkin-Elmer, 10.3 Ci/mmol), which was added last, for a final tracer concentration of 80 nM. The reaction mixture was incubated at rt for 1 h. During the incubation, 96-well Multiscreen filter plates (catalog number MAFCNOB50; Millipore, Bedford, Mass., USA) were loaded with 25 μL of activated charcoal (Multiscreen column loader, catalog number MACL09625, Millipore) and washed once with 100 μL of MeOH. […] After the 1 h incubation, 60 μL of the reaction mixture were transferred to the charcoal plates, which were then assembled on top of the DYNEX plates using Centrifuge Alignment Frames (catalog number MACF09604, Millipore). The unbound labeled ethanolamine was centrifuged through to the bottom plate (5 min at 2000 rpm), which was preloaded with the scintillant, as described above. The plates were sealed and left at rt for 1 h before counting on a Hewlett Packard TopCount.
# [2] = target: T2, FAAH (Homo sapiens, UniProt O00519); experiment: Assay Method 1: FAAH assay, 3H-anandamide hydrolysis in cell homogenate
# T2 sequence (O00519 1-579): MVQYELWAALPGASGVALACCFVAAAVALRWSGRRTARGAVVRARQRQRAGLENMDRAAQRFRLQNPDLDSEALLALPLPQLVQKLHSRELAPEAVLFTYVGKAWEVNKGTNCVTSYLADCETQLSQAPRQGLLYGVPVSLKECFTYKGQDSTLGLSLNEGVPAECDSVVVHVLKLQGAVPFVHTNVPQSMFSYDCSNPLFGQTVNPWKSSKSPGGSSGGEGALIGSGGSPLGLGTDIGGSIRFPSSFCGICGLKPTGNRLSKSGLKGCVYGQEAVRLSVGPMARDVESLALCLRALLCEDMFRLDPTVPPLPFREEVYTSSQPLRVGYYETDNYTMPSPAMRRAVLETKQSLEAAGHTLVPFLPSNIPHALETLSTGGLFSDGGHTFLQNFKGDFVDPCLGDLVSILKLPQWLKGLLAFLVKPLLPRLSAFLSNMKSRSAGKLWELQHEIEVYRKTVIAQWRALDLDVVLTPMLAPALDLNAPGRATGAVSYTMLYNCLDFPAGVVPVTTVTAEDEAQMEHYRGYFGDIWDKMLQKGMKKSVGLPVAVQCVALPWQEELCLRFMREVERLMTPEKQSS
# Protocol: The assay mixture consisted of 50 μL of the cell homogenate, 10 μL of the test compound, and 40 μL of anandamide [1-^3H-ethanolamine] (^3H-AEA, Perkin-Elmer, 10.3 Ci/mmol), which was added last, for a final tracer concentration of 80 nM. The reaction mixture was incubated at rt for 1 h. During the incubation, 96-well Multiscreen filter plates (catalog number MAFCNOB50; Millipore, Bedford, Mass., USA) were loaded with 25 μL of activated charcoal (Multiscreen column loader, catalog number MACL09625, Millipore) and washed once with 100 μL of MeOH. […] After the 1 h incubation, 60 μL of the reaction mixture were transferred to the charcoal plates, which were then assembled on top of the DYNEX plates using Centrifuge Alignment Frames (catalog number MACF09604, Millipore). The unbound labeled ethanolamine was centrifuged through to the bottom plate (5 min at 2000 rpm), which was preloaded with the scintillant, as described above. The plates were sealed and left at rt for 1 h before counting on a Hewlett Packard TopCount. • Assay Method 2
SMILES,IC50 [1],IC50 [2]
"O=C(Nc1cn2ccccc2n1)N1CCN(Cc2cccc(Oc3ccc(Cl)cc3)c2)CC1 [Example 55, 4-[3-(4-Chloro-phenoxy)-benzyl]-piperazine-1-carboxylic acid imidazo[1,2-a]pyridin-2-ylamide]",> 10000 nM,> 10000 nM
"O=C(Nc1cccc2cn[nH]c12)N1CCN(Cc2ccc3c(c2)OC(F)(F)O3)CC1 [Example 49, 4-(2,2-Difluoro-benzo[1,3]dioxol-5-ylmethyl)-piperazine-1-carboxylic acid (1H-indazol-7-yl)-amide]",–,> 10000 nM
"N#Cc1ccc(Oc2cccc(CN3CCN(C(=O)Nc4noc5ncccc45)CC3)c2)cc1 [Example 32, 4-[3-(4-Cyano-phenoxy)-benzyl]-piperazine-1-carboxylic acid isoxazolo[5,4-b]pyridin-3-ylamide]",2300 nM,300 nM
"O=C(Nc1noc2ncccc12)N1CCN(Cc2cccc(Oc3cccc(Cl)c3)c2)CC1 [Example 23, 4-[3-(3-Chloro-phenoxy)-benzyl]-piperazine-1-carboxylic acid isoxazolo[5,4-b]pyridin-3-ylamide]",300 nM,220 nM
"O=C(Nc1noc2ncccc12)N1CCN(Cc2cccc(Oc3ccc(OC(F)(F)F)cc3)c2)CC1 [Example 37, 4-[3-(4-Trifluoromethoxy-phenoxy)-benzyl]-piperazine-1-carboxylic acid isoxazolo[5,4-b]pyridin-3-ylamide]",100 nM,200 nM
"O=C(Nc1noc2ncccc12)N1CCN(Cc2ccc(Br)c(F)c2)CC1 [Example 6, 4-(4-Bromo-3-fluoro-benzyl)-piperazine-1-carboxylic acid isoxazolo[5,4-b]pyridin-3-ylamide]",> 10000 nM,–
"O=C(Nc1noc2cccnc12)N1CCN(Cc2ccc(Cl)c(Cl)c2)CC1 [Example 43, 4-(3,4-Dichloro-benzyl)-piperazine-1-carboxylic acid isoxazolo[4,5-b]pyridin-3-ylamide]",112 nM,250 nM
"O=C(Nc1cnc2cccnn12)N1CCN(Cc2cccc(Oc3ccc(Cl)cc3)c2)CC1 [Example 1, 4-[3-(4-Chloro-phenoxy)-benzyl]-piperazine-1-carboxylic acid imidazo[1,2-b]pyridazin-3-ylamide]",16 nM,–
"O=C(Nc1cccc2cn[nH]c12)N1CCN(Cc2cccc(Oc3ccc(Cl)cc3)c2)CC1 [Example 48, 4-[3-(4-Chloro-phenoxy)-benzyl]-piperazine-1-carboxylic acid (1H-indazol-7-yl)-amide]",3000 nM,–
"O=C(Nc1noc2cccnc12)N1CCN(Cc2cccc(Oc3ccc(Cl)cc3)c2)CC1 [Example 41, 4-[3-(4-Chloro-phenoxy)-benzyl]-piperazine-1-carboxylic acid isoxazolo[4,5-b]pyridin-3-ylamide]",17 nM,–
"O=C(Nc1noc2ncccc12)N1CCN(Cc2cccc(Oc3ccc(Cl)cc3)c2)CC1 [Example 20, 4-[3-(4-Chloro-phenoxy)-benzyl]-piperazine-1-carboxylic acid isoxazolo[5,4-b]pyridin-3-ylamide]",7 nM,–
"O=C(Nc1noc2ccncc12)N1CCN(Cc2cccc(Oc3ccc(Cl)cc3)c2)CC1 [Example 40, 4-[3-(4-Chloro-phenoxy)-benzyl]-piperazine-1-carboxylic acid isoxazolo[4,5-c]pyridin-3-ylamide]",40 nM,–
"O=C(Nc1noc2ncccc12)N1CCN(Cc2ccc3ccccc3c2)CC1 [Example 29, 4-Naphthalen-2-ylmethyl-piperazine-1-carboxylic acid isoxazolo[5,4-b]pyridin-3-ylamide]",–,370 nM
"O=C(Nc1ccc2nccn2c1)N1CCN(Cc2cccc(Oc3ccc(Cl)cc3)c2)CC1 [Example 50, 4-[3-(4-Chloro-phenoxy)-benzyl]-piperazine-1-carboxylic acid imidazo[1,2-a]pyridin-6-ylamide]",1200 nM,–

# The next lines start with the values.
IC50 [1],IC50 [2],SMILES
280 nM,73 nM,"O=C(Nc1nocc1Cl)N1CCN(Cc2ccc3c(c2)OC(F)(F)O3)CC1 [Example 86, 4-(2,2-Difluoro-benzo[1,3]dioxol-5-ylmethyl)-piperazine-1-carboxylic acid (4-chloro-isoxazol-3-yl)-amide]"
6 nM,–,"O=C(Nc1cccc2nccn12)N1CCN(Cc2cccc(Oc3ccc(Cl)cc3)c2)CC1 [Example 69, 4-[3-(4-Chloro-phenoxy)-benzyl]-piperazine-1-carboxylic acid imidazo[1,2-a]pyridin-5-ylamide]"
800 nM,900 nM,"O=C(Nc1cnc2ccccn12)N1CCC(Cc2ccc(Cl)c(Cl)c2)CC1 [Example 82, 4-(3,4-Dichlorobenzyl)-N-imidazo[1,2-a]pyridin-3-ylpiperidine-1-carboxamide]"
180 nM,3 nM,"O=C(Nc1cnc2[nH]ccc2c1)N1CCN(Cc2cccc(Oc3ccc(C(F)(F)F)nn3)c2)CC1 [Example 80, 4-[3-(6-Trifluoromethyl-pyridazin-3-yloxy)-benzyl]-piperazine-1-carboxylic acid (1H-pyrrolo[2,3-b]pyridin-5-yl)-amide]"
2000 nM,–,"O=C(Nc1cnc2ccccn12)N1CCN(Cc2ccc3c(c2)OC(F)(F)O3)CC1 [Example 58, 4-(2,2-Difluoro-benzo[1,3]dioxol-5-ylmethyl)-piperazine-1-carboxylic acid imidazo[1,2-a]pyridin-3-ylamide]"
–,880 nM,"O=C(Nc1nc2ccccc2o1)N1CCN(Cc2cccc(Oc3ccc(Cl)cc3)c2)CC1 [Example 66, 4-[3-(4-Chloro-phenoxy)-benzyl]-piperazine-1-carboxylic acid benzooxazol-2-ylamide]"
830 nM,–,"O=C(Nc1ccn2ccnc2n1)N1CCN(Cc2cccc(Oc3ccc(Cl)cc3)c2)CC1 [Example 75, 4-[3-(4-Chloro-phenoxy)-benzyl]-piperazine-1-carboxylic acid imidazo[1,2-a]pyrimidin-7-ylamide]"
120 nM,–,"Cc1nc2cc(NC(=O)N3CCN(Cc4cccc(Oc5ccc(Cl)cc5)c4)CC3)ccc2o1 [Example 63, 4-[3-(4-Chloro-phenoxy)-benzyl]-piperazine-1-carboxylic acid (2-methyl-benzooxazol-5-yl)-amide]"
500 nM,–,"O=C(Nc1cc2nccn2cn1)N1CCN(Cc2cccc(Oc3ccc(Cl)cc3)c2)CC1 [Example 74, 4-[3-(4-Chloro-phenoxy)-benzyl]-piperazine-1-carboxylic acid imidazo[1,2-c]pyrimidin-7-ylamide]"
31 nM,–,"O=C(Nc1ccnc2nccn12)N1CCN(Cc2cccc(Oc3ccc(Cl)cc3)c2)CC1 [Example 76, 4-[3-(4-Chloro-phenoxy)-benzyl]-piperazine-1-carboxylic acid imidazo[1,2-a]pyrimidin-5-ylamide]"
22 nM,–,"O=C(Nc1nocc1Cl)N1CCN(Cc2cccc(Oc3ccc(Cl)cc3)c2)CC1 [Example 85, 4-[3-(4-Chloro-phenoxy)-benzyl]-piperazine-1-carboxylic acid (4-chloro-isoxazol-3-yl)-amide]"
660 nM,–,"O=C(Nc1ccn2ccnc2c1)N1CCN(Cc2cccc(Oc3ccc(Cl)cc3)c2)CC1 [Example 72, 4-[3-(4-Chloro-phenoxy)-benzyl]-piperazine-1-carboxylic acid imidazo[1,2-a]pyridin-7-ylamide]"
98 nM,–,"O=C(Nc1cnc2ccccn12)N1CCN(Cc2cccc(Oc3ccc(Cl)cc3)c2)CC1 [Example 57, 4-[3-(4-Chloro-phenoxy)-benzyl]-piperazine-1-carboxylic acid imidazo[1,2-a]pyridin-3-ylamide]"
16 nM,–,"O=C(Nc1cnc2[nH]ccc2c1)N1CCN(Cc2cccc(Oc3ccc(Cl)cc3)c2)CC1 [Example 60, 4-[3-(4-Chloro-phenoxy)-benzyl]-piperazine-1-carboxylic acid (1H-pyrrolo[2,3-b]pyridin-5-yl)-amide]"
